US11634404B2 (priority 2016, dated 2023)

Key:
Assay type in all cases: cell-based
D3 DAR = D3 DAR (Homo sapiens (Human), UniProt P35462); settings: β-arrestin recruitment, agonist; for D3 Emax: 'curve' = wrapped cell 'curve interrupted'
D2 DAR [1] = target: T1, D2 DAR (Homo sapiens (Human), UniProt P14416); settings: β-arrestin recruitment, agonist; for D2 Emax: 'curve' = wrapped cell 'curve interrupted'
D2 DAR [2] = target: T1, D2 DAR; settings: β-arrestin recruitment, antagonist; for D2 Imax: 'curve' = wrapped cell 'curve interrupted'

T1 sequence (P14416 whole entry): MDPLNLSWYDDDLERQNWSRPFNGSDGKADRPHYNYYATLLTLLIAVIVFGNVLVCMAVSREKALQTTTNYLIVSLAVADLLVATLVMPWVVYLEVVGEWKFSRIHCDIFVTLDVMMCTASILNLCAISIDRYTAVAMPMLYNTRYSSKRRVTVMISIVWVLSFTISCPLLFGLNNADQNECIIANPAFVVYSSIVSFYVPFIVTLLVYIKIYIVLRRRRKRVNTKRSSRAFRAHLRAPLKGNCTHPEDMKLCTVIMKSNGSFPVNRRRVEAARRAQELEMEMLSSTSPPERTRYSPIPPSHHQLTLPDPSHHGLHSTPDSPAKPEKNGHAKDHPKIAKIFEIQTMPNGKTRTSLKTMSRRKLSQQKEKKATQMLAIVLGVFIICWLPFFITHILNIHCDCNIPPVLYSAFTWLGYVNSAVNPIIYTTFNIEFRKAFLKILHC
D3 DAR, sequence (P35462 whole entry): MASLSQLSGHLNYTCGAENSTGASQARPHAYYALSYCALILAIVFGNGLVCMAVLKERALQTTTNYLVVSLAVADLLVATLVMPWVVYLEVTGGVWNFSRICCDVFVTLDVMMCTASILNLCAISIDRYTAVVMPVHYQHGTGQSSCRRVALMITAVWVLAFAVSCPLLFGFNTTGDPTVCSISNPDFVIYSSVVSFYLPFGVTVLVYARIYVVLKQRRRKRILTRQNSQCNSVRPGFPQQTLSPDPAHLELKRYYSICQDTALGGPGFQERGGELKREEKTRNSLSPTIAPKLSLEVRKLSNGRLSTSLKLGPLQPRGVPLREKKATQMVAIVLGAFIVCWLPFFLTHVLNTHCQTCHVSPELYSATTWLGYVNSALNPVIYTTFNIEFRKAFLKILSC

Cn1c(C(=O)N2CCN(CCOc3cccnc3)CC2)cc2ccccc21 [Compound 81]
EC50 (D3 DAR): 0.0376 µM
EC50 (D2 DAR [1]): 6.2 µM
D2 IC50 (D2 DAR [2]): none

O=C(c1cc2ccccc2o1)N1CCN(CCOc2cccnc2)CC1 [Compound 88]
EC50 (D3 DAR): 0.042 µM
EC50 (D2 DAR [1]): 1.7 µM
D2 IC50 (D2 DAR [2]): none

O=C(c1ccc[nH]1)N1CCN(CCOc2cccnc2)CC1 [Compound 90]
EC50 (D3 DAR): 0.118 µM
EC50 (D2 DAR [1]): 6.1 µM
IC50 (D2 DAR [2]): > 100 µM

CSc1cccc(OCCN2CCN(C(=O)c3cc4ccccc4[nH]3)CC2)c1 [Compound 93]
EC50 (D3 DAR): 0.63 µM
D2 EC50 (D2 DAR [1]): none
D2 Emax (D2 DAR [1]): none
IC50 (D2 DAR [2]): > 100 µM

CCOc1ccc(OCCN2CCN(C(=O)c3cc4ccccc4[nH]3)CC2)cc1 [Compound 95]
EC50 (D3 DAR): > 100 µM
D3 Emax (D3 DAR): curve
D2 EC50 (D2 DAR [1]): none
D2 Emax (D2 DAR [1]): none
IC50 (D2 DAR [2]): > 100 µM

O=C(c1cc2ccccc2[nH]1)N1CCN(CCOc2ccc(OC(F)(F)F)cc2)CC1 [Compound 96]
EC50 (D3 DAR): 3.8 µM
EC50 (D2 DAR [1]): > 100 µM
D2 Emax (D2 DAR [1]): curve
IC50 (D2 DAR [2]): > 100 µM

Cc1ccc(OCCN2CCN(C(=O)c3cc4ccccc4[nH]3)CC2)cc1 [Compound 97]
EC50 (D3 DAR): 0.151 µM
EC50 (D2 DAR [1]): > 50 µM
D2 Emax (D2 DAR [1]): curve
IC50 (D2 DAR [2]): > 100 µM

CC(C)(C)c1ccc(OCCN2CCN(C(=O)c3cc4ccccc4[nH]3)CC2)cc1 [Compound 99]
D3 EC50 (D3 DAR): none
D3 Emax (D3 DAR): none
D2 EC50 (D2 DAR [1]): none
D2 Emax (D2 DAR [1]): none
IC50 (D2 DAR [2]): > 100 µM

O=C(c1cc2ccccc2[nH]1)N1CCN(CCOc2ccc(F)cc2)CC1 [Compound 100]
EC50 (D3 DAR): 0.126 µM
EC50 (D2 DAR [1]): > 50 µM
D2 Emax (D2 DAR [1]): curve
IC50 (D2 DAR [2]): 9.7 µM
D2 Imax (D2 DAR [2]): 72 ± 4.6

O=C(c1cc2ccccc2[nH]1)N1CCN(CCOc2ccc(Cl)cc2)CC1 [Compound 101]
EC50 (D3 DAR): 0.114 µM
D2 EC50 (D2 DAR [1]): none
D2 Emax (D2 DAR [1]): none
IC50 (D2 DAR [2]): > 50 µM

COc1ccc(OCCN2CCN(C(=O)c3cc4ccccc4[nH]3)CC2)cc1OC [Compound 104]
EC50 (D3 DAR): 0.71 µM
D2 EC50 (D2 DAR [1]): none
D2 Emax (D2 DAR [1]): none
IC50 (D2 DAR [2]): > 50 µM

COc1ccc(OCCN2CCN(C(=O)c3cc4ccccc4[nH]3)CC2)c(Cl)c1 [Compound 105]
EC50 (D3 DAR): 0.078 µM
EC50 (D2 DAR [1]): > 50 µM
D2 Emax (D2 DAR [1]): curve
IC50 (D2 DAR [2]): > 50 µM

O=C(c1cc2ccccc2[nH]1)N1CCN(CCOc2ccncc2)CC1 [Compound 107]
EC50 (D3 DAR): 0.472 µM
D2 EC50 (D2 DAR [1]): none
D2 Emax (D2 DAR [1]): none
IC50 (D2 DAR [2]): > 100 µM

O=C(c1cc2ccccc2[nH]1)N1CCN(CCOc2cncc(Cl)c2)CC1 [Compound 108]
EC50 (D3 DAR): 0.005 µM
EC50 (D2 DAR [1]): 0.79 µM
D2 IC50 (D2 DAR [2]): none

O=C(c1cc2ccccc2[nH]1)N1CCN(CCOc2ccc3cc[nH]c3c2)CC1 [Compound 109]
EC50 (D3 DAR): 0.0609 µM
D2 EC50 (D2 DAR [1]): none
D2 Emax (D2 DAR [1]): none
IC50 (D2 DAR [2]): 0.44 µM
D2 Imax (D2 DAR [2]): 100

COc1ccc(OCC(C)N2CCN(C(=O)c3ccc(OC)cc3)CC2)cc1 (stereo not drawn) [Compound 111]
EC50 (D3 DAR): 9.3 µM
D2 EC50 (D2 DAR [1]): none
D2 Emax (D2 DAR [1]): none
IC50 (D2 DAR [2]): > 100 µM

COc1ccc(C(=O)N2CCN(c3ccc(OC)cc3)CC2)cc1 [Compound 114]
D3 EC50 (D3 DAR): none
D3 Emax (D3 DAR): none
D2 EC50 (D2 DAR [1]): none
D2 Emax (D2 DAR [1]): none
IC50 (D2 DAR [2]): > 100 µM

COc1ccc(OCCN2CCN(S(=O)(=O)c3ccc(OC)cc3)CC2)cc1 [Compound 116]
D3 EC50 (D3 DAR): none
D3 Emax (D3 DAR): none
EC50 (D2 DAR [1]): > 100 µM
D2 Emax (D2 DAR [1]): curve
D2 IC50 (D2 DAR [2]): none

COc1ccc(OCCC2CCN(C(=O)c3ccc(OC)cc3)CC2)cc1 [Compound 117]
D3 EC50 (D3 DAR): none
D3 Emax (D3 DAR): none
D2 EC50 (D2 DAR [1]): none
D2 Emax (D2 DAR [1]): none
D2 IC50 (D2 DAR [2]): none

COc1ccc(N(C)CCN2CCN(C(=O)c3cc4ccccc4[nH]3)CC2)cc1 [Compound 119]
EC50 (D3 DAR): 1.9 µM
D2 EC50 (D2 DAR [1]): none
D2 Emax (D2 DAR [1]): none
IC50 (D2 DAR [2]): > 100 µM

COc1ccc(OCCC2CCN(C(=O)c3cc4ccccc4[nH]3)CC2)cc1 [Compound 124]
D3 EC50 (D3 DAR): none
D3 Emax (D3 DAR): none
D2 EC50 (D2 DAR [1]): none
D2 Emax (D2 DAR [1]): none
D2 IC50 (D2 DAR [2]): none

COc1ccc(OCCN2CCN(CC(=O)c3cc4ccccc4[nH]3)CC2)cc1 [Compound 125]
D3 EC50 (D3 DAR): none
D3 Emax (D3 DAR): none
D2 EC50 (D2 DAR [1]): none
D2 Emax (D2 DAR [1]): none
D2 IC50 (D2 DAR [2]): none
